Data from the supplement of paper PMC10307832.

Legend:
Experiment in all cases: relative viability (nuclei count vs DMSO), 5 days (fraction); higher = more cells survive
NCI-H596 = system: NCI-H596
In short: (§1)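 Dosing by pin tool came one day after lung cancer cell lines were seeded in 1536-well plates, using either one drug or a fixed anchor-drug dose plus five library-drug doses (not always all listed) in √10 steps. After 5 days, nuclei were counted on 4× images. Relative viability is treated-well nuclei count divided by vehicle-well nuclei count, and values are medians of duplicate plates.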

HCC-366 = system: HCC-366
In short: as §1

LOU-NH91 = system: LOU-NH91
In short: as §1

SK-MES-1 = system: SK-MES-1
In short: as §1

HARA = system: HARA
In short: as §1

NCI-H2228 = system: NCI-H2228
In short: as §1

NCI-H1395 = system: NCI-H1395
In short: as §1

LC-2-ad = system: LC-2-ad
In short: as §1

NCI-H2087 = system: NCI-H2087
In short: as §1

NCI-H2009 = system: NCI-H2009
In short: as §1

NCI-H1792 = system: NCI-H1792
In short: as §1

BEN = system: BEN
In short: as §1

NC(=O)Nc1cc(-c2cccc(F)c2)sc1C(=O)N[C@H]1CCCNC1 [AZD7762] + COc1cccc2cc(-c3nc([C@H]4CC[C@H](C(=O)O)CC4)n4ncnc(N)c34)[nH]c12 [OSI-027] (partner 0.5 µM)
relative viability (NCI-H596; first compound 0.1 µM): 0.849
relative viability (NCI-H596; first compound 0.3162 µM): 0.673
relative viability (NCI-H596; first compound 1 µM): 0.686
relative viability (HCC-366; first compound 0.01 µM): 1.02
relative viability (HCC-366; first compound 0.03162 µM): 0.896
relative viability (HCC-366; first compound 0.1 µM): 0.985
relative viability (HCC-366; first compound 0.3162 µM): 0.869
relative viability (HCC-366; first compound 1 µM): 0.122
relative viability (LOU-NH91; first compound 0.01 µM): 0.735
relative viability (LOU-NH91; first compound 0.03162 µM): 0.749
relative viability (LOU-NH91; first compound 0.1 µM): 0.692
relative viability (LOU-NH91; first compound 0.3162 µM): 0.638
relative viability (LOU-NH91; first compound 1 µM): 0.554
relative viability (SK-MES-1; first compound 0.01 µM): 0.672
relative viability (SK-MES-1; first compound 0.03162 µM): 0.571
relative viability (SK-MES-1; first compound 0.1 µM): 0.52
relative viability (SK-MES-1; first compound 0.3162 µM): 0.173
relative viability (SK-MES-1; first compound 1 µM): 0.17
relative viability (HARA; first compound 0.01 µM): 0.506
relative viability (HARA; first compound 0.03162 µM): 0.609
relative viability (HARA; first compound 0.1 µM): 0.564
relative viability (HARA; first compound 0.3162 µM): 0.59
relative viability (HARA; first compound 1 µM): 0.16
relative viability (NCI-H2228; first compound 0.01 µM): 0.513
relative viability (NCI-H2228; first compound 0.03162 µM): 0.847
relative viability (NCI-H2228; first compound 0.1 µM): 0.492
relative viability (NCI-H2228; first compound 0.3162 µM): 0.302
relative viability (NCI-H2228; first compound 1 µM): 0.152
relative viability (NCI-H1395; first compound 0.01 µM): 0.727
relative viability (NCI-H1395; first compound 0.03162 µM): 0.74
relative viability (NCI-H1395; first compound 0.1 µM): 0.708
relative viability (NCI-H1395; first compound 0.3162 µM): 0.458
relative viability (NCI-H1395; first compound 1 µM): 0.363
relative viability (LC-2-ad; first compound 0.01 µM): 0.911
relative viability (LC-2-ad; first compound 0.03162 µM): 1
relative viability (LC-2-ad; first compound 0.1 µM): 0.816
relative viability (LC-2-ad; first compound 0.3162 µM): 0.8
relative viability (LC-2-ad; first compound 1 µM): 0.543
relative viability (NCI-H2087; first compound 0.01 µM): 0.474
relative viability (NCI-H2087; first compound 0.03162 µM): 0.653
relative viability (NCI-H2087; first compound 0.1 µM): 0.681
relative viability (NCI-H2087; first compound 0.3162 µM): 0.883
relative viability (NCI-H2087; first compound 1 µM): 0.779
relative viability (NCI-H2009; first compound 0.01 µM): 0.664
relative viability (NCI-H2009; first compound 0.03162 µM): 0.736
relative viability (NCI-H2009; first compound 0.1 µM): 0.73
relative viability (NCI-H2009; first compound 0.3162 µM): 0.601
relative viability (NCI-H2009; first compound 1 µM): 0.459
relative viability (NCI-H1792; first compound 0.01 µM): 0.832
relative viability (NCI-H1792; first compound 0.03162 µM): 0.848
relative viability (NCI-H1792; first compound 0.1 µM): 0.811
relative viability (NCI-H1792; first compound 0.3162 µM): 0.867
relative viability (NCI-H1792; first compound 1 µM): 0.965
relative viability (BEN; first compound 0.01 µM): 0.284
relative viability (BEN; first compound 0.03162 µM): 0.297
relative viability (BEN; first compound 0.1 µM): 0.305
relative viability (BEN; first compound 0.3162 µM): 0.287
relative viability (BEN; first compound 1 µM): 0.246
